Assay results published in ChEMBL document CHEMBL1146960, “Synthesis and anticancer activity of thiosemicarbazones” (Bioorg Med Chem Lett, 2006).

Columns and labels:
Type in all cases: functional
P388 [1] = experiment: Antitumor activity against P388 cell line at 0.01 umol/L by MTT method; conditions: Mus musculus
P388 [2] = experiment: Antitumor activity against P388 cell line at 100 umol/L by MTT method; conditions: Mus musculus
SGC-7901 [3] = experiment: Antitumor activity against SGC7901 cell line at 0.1 umol/L by SRB method; conditions: Homo sapiens
SGC-7901 [4] = experiment: Antitumor activity against SGC7901 cell line at 100 umol/L by SRB method; conditions: Homo sapiens
P388 [5] = experiment: Antitumor activity against P388 cell line at 1 umol/L by MTT method; conditions: Mus musculus
SGC-7901 [6] = experiment: Antitumor activity against SGC7901 cell line at 0.01 umol/L by SRB method; conditions: Homo sapiens
P388 [7] = experiment: Antitumor activity against P388 cell line at 0.1 umol/L by MTT method; conditions: Mus musculus
SGC-7901 [8] = experiment: Antitumor activity against SGC7901 cell line at 1 umol/L by SRB method; conditions: Homo sapiens
SGC-7901 [9] = experiment: Antitumor activity against SGC7901 cell line at 10 umol/L by SRB method; conditions: Homo sapiens
P388 [10] = experiment: Antitumor activity against P388 cell line at 10 umol/L by MTT method; conditions: Mus musculus
A549 [11] = experiment: Antitumor activity against A549 cell line at 0.1 umol/L by SRB method; conditions: Homo sapiens
A549 [12] = experiment: Antitumor activity against A549 cell line at 1 umol/L by SRB method; conditions: Homo sapiens
A549 [13] = experiment: Antitumor activity against A549 cell line at 10 umol/L by SRB method; conditions: Homo sapiens

Compound	inhibition at 0.01 µM (P388 [1]) [%]	inhibition at 100 µM (P388 [2]) [%]	inhibition at 0.1 µM (SGC-7901 [3]) [%]	inhibition at 100 µM (SGC-7901 [4]) [%]	inhibition at 1 µM (P388 [5]) [%]	inhibition at 0.01 µM (SGC-7901 [6]) [%]	inhibition at 0.1 µM (P388 [7]) [%]	inhibition at 1 µM (SGC-7901 [8]) [%]	inhibition at 10 µM (SGC-7901 [9]) [%]	inhibition at 10 µM (P388 [10]) [%]	inhibition at 0.1 µM (A549 [11]) [%]	inhibition at 1 µM (A549 [12]) [%]	inhibition at 10 µM (A549 [13]) [%]
C/C(=N/N=C(\S)Nc1cccc(Cl)c1)c1cccs1	0	51	0	86.8	3.7	0	8.3	0	39.7	6.5			
CCn1cc(C(=O)O)c(=O)c2cc(F)c(N3CCN(/C(S)=N/N=C\c4ccccc4)CC3)cc21					4.6		0			68.8	0	0.8	4.1
C/C(=N/N=C(\S)N1CCN(c2ccccn2)CC1)c1ccco1					50		37.9			77.3	0	0	72.3
C/C(=N/N=C(\S)Nc1cc(Cl)cc(Cl)c1)c1cccs1	0	90.1	0	72.9	7	0	17.6	0	27.9	20.9			
COc1ccc(/C(C)=N\N=C(/S)N2CCN(c3ccccn3)CC2)cc1					3.7		2.8			7.3	3.3	0	0.8
C/C(=N/N=C(\S)N1CCN(c2ccccn2)CC1)c1ccc(O)cc1					25.8		28.8			53	0	0	0
C/C(=N/N=C(\S)N1CCN(C2CCCCCC2)CC1)c1ccccn1					41.6		39.8			96.5	0	17.8	40
C/C(=N/N=C(\S)Nc1cccc2ccccc12)c1cccs1	0	30.3	16.5	55.9	7.2	20	0.9	13.5	24.3	4.3			
CCn1cc(C(=O)O)c(=O)c2cc(F)c(N3CCN(/C(S)=N/N=C(/C)c4ccccn4)CC3)cc21					4.6		0			26.6	0	16.4	7.4
S=C(N/N=C\c1ccccc1)N1CCN(c2ccccn2)CC1					4.6		3.7			7.3	0.8	16.4	0
C/C(=N/N=C(\S)N1CCN(c2ccccn2)CC1)c1cccs1	0	100	1.6	96.4	15	12.8	0	7.2	94.9	0			
C/C(=N/N=C(\S)N1CCN(c2ccccn2)CC1)c1ccc(C)cc1					21.2		28.8			25.8	0	0	0
C/C(=N/N=C(\S)Nc1ccccc1)c1cccs1	8.5	48	0	39.2	1.6	0	6.2	0	0	1.2			
